Test results taken from ChEMBL document CHEMBL1201862, “PubChem BioAssay data set” (2004).
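Briefly, cells in 96-well plates were exposed to five compound concentrations for 48 h, and endpoints were estimated by linear interpolation. Here, GI50 denotes the concentration required for 50% inhibition of growth.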 The source made the active and inactive calls. Cut-off read from the data, not from the text of the source: active = GI50 up to about 1.1 µM and inactive = higher.

Experiments:
Experiment in all cases: DTP human tumour cell line panel, 48 h
SK-OV-3 = test system: SK-OV-3
SF-295 = test system: SF-295
Malme-3M = test system: Malme-3M
SNB-75 = test system: SNB-75
UACC-62 = test system: UACC-62
UACC-257 = test system: UACC-257
SK-MEL-2 = test system: SK-MEL-2
HCT-116 = test system: HCT-116
NCI-H522 = test system: NCI-H522
HL-60 = test system: HL-60
MOLT-4 = test system: MOLT-4
SF-539 = test system: SF-539
A549 = test system: A549
DMS-114 = test system: DMS-114
K562 = test system: K562
A498 = test system: A498
HCC 2998 = test system: HCC 2998
NCI-H226 = test system: NCI-H226
OVCAR-5 = test system: OVCAR-5
DMS-273 = test system: DMS-273

Measured: GI50

O=C1C(Cl)N(c2ccc(Cl)cc2Cl)C1c1c[nH]c2ccccc12 (stereo not drawn)
inactive: SK-OV-3 > 100 µM | SF-295 > 100 µM | Malme-3M > 100 µM | SNB-75 6.49 µM | UACC-62 > 100 µM | UACC-257 > 100 µM | SK-MEL-2 > 100 µM | HCT-116 91.2 µM | NCI-H522 > 100 µM | HL-60 > 100 µM | MOLT-4 > 100 µM | SF-539 > 100 µM | A549 > 100 µM | DMS-114 > 100 µM | K562 > 100 µM

Cn1cnc(/C=C/C#N)c1
inactive: SK-OV-3 > 100 µM | A498 > 100 µM | SF-295 > 100 µM | Malme-3M > 100 µM | SNB-75 > 100 µM | UACC-62 > 100 µM | UACC-257 > 100 µM | HCC 2998 > 100 µM | NCI-H226 76.7 µM | SK-MEL-2 > 100 µM | NCI-H522 > 100 µM | MOLT-4 > 100 µM | OVCAR-5 > 100 µM | SF-539 > 100 µM | A549 > 100 µM | K562 > 100 µM

Cc1cccc(Cl)c1NC(N)=S
inactive: SK-OV-3 44.4 µM | A498 66.7 µM | SF-295 73.8 µM | Malme-3M 52 µM | SNB-75 47.1 µM | UACC-62 69.7 µM | UACC-257 > 100 µM | HCC 2998 > 100 µM | NCI-H226 82.8 µM | HCT-116 17.4 µM | HL-60 38.4 µM | DMS-273 20.5 µM | MOLT-4 47.1 µM | OVCAR-5 63.8 µM | SF-539 33.7 µM | A549 82.8 µM | DMS-114 18.5 µM | K562 28.3 µM

COc1cccc(C2c3cc4c(cc3OC(N3CCOCC3)C2C)OCO4)c1OC (stereo not drawn)
inactive: SF-295 2.84 µM | SNB-75 4.88 µM | UACC-62 15.4 µM | UACC-257 8.02 µM | HCC 2998 10.4 µM | SK-MEL-2 6.41 µM | HCT-116 2.98 µM | NCI-H522 4.26 µM | MOLT-4 4.28 µM | OVCAR-5 13.1 µM | SF-539 10.6 µM | A549 9.98 µM | K562 2.07 µM

O=C(O)CN(CC(=O)O)C1CCCCC1N(CC(=O)O)CC(=O)NCCN=C=S (stereo not drawn)
inactive: SK-OV-3 > 100 µM | A498 > 100 µM | SF-295 > 100 µM | Malme-3M > 100 µM | UACC-62 > 100 µM | UACC-257 > 100 µM | HCC 2998 > 100 µM | NCI-H226 > 100 µM | SK-MEL-2 > 100 µM | HCT-116 > 100 µM | NCI-H522 > 100 µM | HL-60 > 100 µM | MOLT-4 > 100 µM | OVCAR-5 > 100 µM | SF-539 > 100 µM | A549 > 100 µM | K562 > 100 µM

CCOC(=O)C(NC(C)=O)(Nc1ccc(F)cc1)C(F)(F)F (stereo not drawn)
inactive: SK-OV-3 > 100 µM | SF-295 16.6 µM | SNB-75 > 100 µM | UACC-62 18.2 µM | UACC-257 > 100 µM | HCC 2998 5.18 µM | SK-MEL-2 > 100 µM | HCT-116 13.4 µM | NCI-H522 > 100 µM | HL-60 4.79 µM | MOLT-4 90.6 µM | OVCAR-5 47 µM | SF-539 > 100 µM | A549 39.3 µM | K562 2.61 µM

COCCOCCOCCC(=O)NC1CC2CCC1(C)C2(C)C (stereo not drawn)
inactive: SK-OV-3 > 100 µM | A498 > 100 µM | SF-295 > 100 µM | Malme-3M > 100 µM | SNB-75 > 100 µM | UACC-62 > 100 µM | UACC-257 > 100 µM | HCC 2998 > 100 µM | NCI-H226 > 100 µM | HCT-116 > 100 µM | HL-60 > 100 µM | MOLT-4 > 100 µM | OVCAR-5 > 100 µM | SF-539 > 100 µM | A549 > 100 µM | K562 > 100 µM

CC1(C23CC4CC(CC(C4)C2)C3)n2c(=O)n(-c3ccccc3)c(=O)n2C1(C)C12CC3CC(CC(C3)C1)C2 (stereo not drawn)
inactive: SK-OV-3 > 100 µM | A498 > 100 µM | SF-295 > 100 µM | SNB-75 74.1 µM | UACC-62 > 100 µM | UACC-257 > 100 µM | NCI-H226 > 100 µM | SK-MEL-2 > 100 µM | HL-60 > 100 µM | MOLT-4 > 100 µM | OVCAR-5 > 100 µM | SF-539 > 100 µM | A549 > 100 µM | K562 > 100 µM

C=CCn1c2ccccc2c2c(C)c3cnccc3c(C)c21
inactive: SK-OV-3 5.9 µM | A498 6.34 µM | SF-295 9.86 µM | Malme-3M 13.8 µM | SNB-75 13.2 µM | UACC-62 9.35 µM | UACC-257 7.23 µM | HCC 2998 20.4 µM | NCI-H226 5.16 µM | SK-MEL-2 15.8 µM | HCT-116 4.48 µM | NCI-H522 5.52 µM | HL-60 3.17 µM | DMS-273 6.92 µM | MOLT-4 2.95 µM | OVCAR-5 6.38 µM | SF-539 10.7 µM | A549 9.77 µM | K562 5.6 µM
